From patent US10077243B2, “Compounds for treating disorders mediated by metabotropic glutamate receptor 5, and methods of use thereof” (Sunovion Pharmaceuticals Inc., priority 2009, dated 2018)

Target: T1, human mGluR5 (Homo sapiens, UniProt P41594)
T1 construct: expressed in transfected cells; host or cells: HEK293 cells stably expressing rat GLAST (EAAT1), stably transfected with pcDNAzeo3.1 carrying synthetic human mGluR5 DNA; zeocin-selected single clones
Experiment: In vitro cell-based FLIPR calcium assay for positive modulation of the activation of mGluR5 by glutamate (PAM EC50)
Details: HEK293/GLAST cells expressing recombinant human mGluR5; FLIPR calcium signal; glutamate added at its EC20; read-out: mGluR5 PAM EC50
Procedure, shortened: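 PAM activity was measured as FLIPR calcium fluorescence in the presence of an EC20 glutamate concentration determined daily from a glutamate concentration-response curve. Cells were HEK293/GLAST clones expressing mGluR5, dye-loaded at 25 °C for 45–60 min in HEPES-buffered HBSS; vehicle control was 0.3% DMSO.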

T1 sequence (P41594 21-1212): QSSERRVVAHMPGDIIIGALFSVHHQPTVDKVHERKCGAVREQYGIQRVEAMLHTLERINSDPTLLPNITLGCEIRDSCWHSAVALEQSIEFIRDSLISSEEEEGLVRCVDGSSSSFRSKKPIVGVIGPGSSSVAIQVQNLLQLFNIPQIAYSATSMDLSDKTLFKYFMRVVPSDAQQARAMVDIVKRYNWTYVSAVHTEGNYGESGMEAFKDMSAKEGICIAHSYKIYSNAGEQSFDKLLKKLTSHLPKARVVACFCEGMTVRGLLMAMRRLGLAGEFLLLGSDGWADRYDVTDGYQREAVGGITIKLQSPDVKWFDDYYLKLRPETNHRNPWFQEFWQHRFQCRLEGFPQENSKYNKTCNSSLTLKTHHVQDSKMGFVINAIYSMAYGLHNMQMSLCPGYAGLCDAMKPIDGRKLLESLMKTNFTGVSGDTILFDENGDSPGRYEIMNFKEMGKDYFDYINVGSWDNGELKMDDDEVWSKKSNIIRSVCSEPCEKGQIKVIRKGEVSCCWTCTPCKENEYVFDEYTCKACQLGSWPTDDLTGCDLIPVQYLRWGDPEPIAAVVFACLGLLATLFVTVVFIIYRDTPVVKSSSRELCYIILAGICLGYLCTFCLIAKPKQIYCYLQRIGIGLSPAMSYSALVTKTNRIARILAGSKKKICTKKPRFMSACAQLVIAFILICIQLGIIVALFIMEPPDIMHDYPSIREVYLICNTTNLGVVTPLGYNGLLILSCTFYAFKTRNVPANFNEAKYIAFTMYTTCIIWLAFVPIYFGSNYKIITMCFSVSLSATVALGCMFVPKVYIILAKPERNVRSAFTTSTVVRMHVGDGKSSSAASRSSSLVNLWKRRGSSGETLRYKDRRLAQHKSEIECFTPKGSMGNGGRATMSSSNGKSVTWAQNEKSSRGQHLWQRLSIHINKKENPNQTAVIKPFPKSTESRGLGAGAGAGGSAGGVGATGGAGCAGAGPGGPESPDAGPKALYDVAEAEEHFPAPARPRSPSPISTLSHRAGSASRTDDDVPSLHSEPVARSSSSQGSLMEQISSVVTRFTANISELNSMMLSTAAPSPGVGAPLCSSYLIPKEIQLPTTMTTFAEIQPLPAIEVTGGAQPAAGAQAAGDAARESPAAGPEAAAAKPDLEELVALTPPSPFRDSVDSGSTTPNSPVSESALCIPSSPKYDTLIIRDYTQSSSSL

SMILES	EC50 [nM]
CCCn1cnc2cc(C#Cc3ccc(F)cc3)ccc2c1=O [Example 1.6, 7-((4-fluorophenyl)ethynyl)-3-propylquinazolin-4(3H)-one]	100 to 300
CC1Cc2nc3cc(CCc4cccc(F)c4)ccc3c(=O)n2C1 (stereo not shown) [Example 21.7, 6-(3-fluorophenethyl)-2-methyl-2,3-dihydropyrrolo[2,1-b]quinazolin-9(1H)-one]	300 to 1000
N#Cc1cc(C#Cc2ccc3c(=O)n4c(nc3c2)CCC2(CC4)OCCO2)ccc1F [Example 7.19]	300 to 1000
N#CCN1CCc2nc3cc(C#Cc4ccccn4)ccc3c(=O)n2CC1 [Example 8.23, 2-(11-oxo-8-(pyridin-2-ylethynyl)-1,2,4,5-tetrahydro-[1,4]diazepino[7,1-b]quinazolin-3(11H)-yl)acetonitrile]	30 to 100
O=c1c2ccc(C#Cc3ccccn3)cc2nc2n1C1CCN(CC1)C2 [Example 8.26]	100 to 300
CC1Cc2nc3cc(C#Cc4ccccn4)ccc3c(=O)n2C1 (single isomer, unassigned) [3.12/3.13 faster moving enantiomer (fraction 1), 2-methyl-6-(pyridin-2-ylethynyl)-2,3-dihydropyrrolo[2,1-b]quinazolin-9(1H)-one]	30 to 100
CC1(C)CNc2nc3cc(C#Cc4ccccn4)ccc3c(=O)n2C1 [Example 5.26, 3,3-dimethyl-9-(pyridin-2-ylethynyl)-3,4-dihydro-1H-pyrimido[2,1-b]quinazolin-6(2H)-one]	< 10
COCCn1cnc2cc(C#Cc3cccc(F)c3)cnc2c1=O [Example 11.1, 7-((3-fluorophenyl)ethynyl)-3-(2-methoxyethyl)pyrido[3,2-d]pyrimidin-4(3H)-one]	30 to 100
CN1C2CCC1Cn1c(nc3cc(C#Cc4cccc(F)c4)ccc3c1=O)C2 (stereo not shown) [Example 9.1, 3-((3-fluorophenyl)ethynyl)-14-methyl-8,9,10,11-tetrahydro-6H-7,10-epiminoazocino[2,1-b]quinazolin-13(7H)-one]	300 to 1000
CC1(C)CCc2nc3nc(C#Cc4ccccn4)ccc3c(=O)n2C1 [Example 12.3, 8,8-dimethyl-2-(pyridin-2-ylethynyl)-7,8,9,10-tetrahydro-5H-dipyrido[1,2-a:2′,3′-d]pyrimidin-5-one]	30 to 100
O=c1c2ncc(C#Cc3ccccn3)cc2nc2n1C(CO)CC2 (stereo not shown) [Example 11.3, 8-(hydroxymethyl)-3-(pyridin-2-ylethynyl)-7,8-dihydropyrido[3,2-d]pyrrolo[1,2-a]pyrimidin-10(6H)-one]	300 to 1000
COCCc1nc2cc(C#Cc3cccc(F)c3)ccc2c(=O)n1C [Example 2.1, 7-((3-fluorophenyl)ethynyl)-2-(2-methoxyethyl)-3-methylquinazolin-4(3H)-one]	< 10
CN1CCCn2c(nc3cc(C#Cc4cccc(F)c4)ccc3c2=O)CC1 [Example 10.3, 11-((3-fluorophenyl)ethynyl)-3-methyl-3,4,5,6-tetrahydro-1H-[1,5]diazocino[2,1-b]quinazolin-8(2H)-one]	10 to 30
Cn1cnc2cc(C#Cc3ccccc3)ccc2c1=O [Example 1.3, 3-methyl-7-(phenylethynyl)quinazolin-4(3H)-one]	100 to 300
CCC(C)c1nc2cc(C#Cc3cccc(F)c3)ccc2c(=O)n1C (stereo not shown) [Example 2.14, 2-(sec-butyl)-7-((3-fluorophenyl)ethynyl)-3-methylquinazolin-4(3H)-one]	300 to 1000
C=C1CCc2nc3cc(C#Cc4cccc(F)c4)ccc3c(=O)n2CC1 [Example 6.22, 3-((3-fluorophenyl)ethynyl)-8-methylene-7,8,9,10-tetrahydroazepino[2,1-b]quinazolin-12(6H)-one]	< 10
O=c1c2ccc(C#Cc3ccccn3)cc2nc2n1CC1CCCN1CC2 (single isomer, unassigned) [Example 9.4a/9.4b slower moving enantiomer (fraction 2), 9-(pyridin-2-ylethynyl)-2,3,5,6,14,14a-hexahydropyrrolo[2′,1′:3,4][1,4]diazepino[7,1-b]quinazolin-12(1H)-one]	100 to 300
Cn1cnc2cc(C#Cc3nccs3)ccc2c1=O [Example 1.5, 3-methyl-7-(thiazol-2-ylethynyl)quinazolin-4(3H)-one]	300 to 1000
O=c1c2ccc(C#Cc3cccc(F)c3)cc2nc2n1CC1CCCN1C2 (stereo not shown) [Example 5.21, 8-((3-fluorophenyl)ethynyl)-2,3,13,13a-tetrahydro-1H-pyrrolo[1′,2′:4,5]pyrazino[2,1-b]quinazolin-11(5H)-one]	< 10
CN1CCCC1c1nc2cc(C#Cc3cccc(F)c3)ccc2c(=O)n1C (stereo not shown) [Example 2.4, 7-((3-fluorophenyl)ethynyl)-3-methyl-2-(1-methylpyrrolidin-2-yl)quinazolin-4(3H)-one]	100 to 300
Cc1cnc(NC(=O)c2ccn3c(=O)c4c(nc3c2)CCCCCC4)s1 [Example 28.1, N-(5-methylthiazol-2-yl)-12-oxo-7,8,9,10,11,12-hexahydro-6H-cycloocta[d]pyrido[1,2-a]pyrimidine-3-carboxamide]	< 10
CC1CCCc2nc3cc(C#Cc4ccccn4)ccc3c(=O)n21 (stereo not shown) [Example 4.18, 9-methyl-3-(pyridin-2-ylethynyl)-8,9-dihydro-6H-pyrido[2,1-b]quinazolin-11(7H)-one]	10 to 30

SMILES	EC50 [nM]
CC(O)c1cnc2cc(C#Cc3cccc(F)c3)ccn2c1=O (stereo not shown) [Example 13.1, 8-((3-fluorophenyl)ethynyl)-3-(1-hydroxyethyl)-4H-pyrido[1,2-a]pyrimidin-4-one]	100 to 300
CC1CCc2nc3cc(C#Cc4cccc(F)c4)ccc3c(=O)n2CC1 (stereo not shown) [Example 6.7, 3-((3-fluorophenyl)ethynyl)-8-methyl-7,8,9,10-tetrahydroazepino[2,1-b]quinazolin-12(6H)-one]	< 10
O=c1c2ccc(C#Cc3ccc(F)cc3)cc2nc2n1CCC1(CC2)OCCO1 [Example 7.3]	30 to 100
O=C1CCc2nc3cc(C#Cc4cccc(F)c4)ccc3c(=O)n2CCN1 [Example 10.5, 9-((3-fluorophenyl)ethynyl)-2,3,5,6-tetrahydro-1H-[1,4]diazocino[8,1-b]quinazoline-4,12-dione]	30 to 100
CC1(C)CCc2c(nc3cc(C#Cc4ccccn4)ccn3c2=O)C1 [Example 15.3, 3,3-dimethyl-7-(pyridin-2-ylethynyl)-3,4-dihydro-1H-pyrido[2,1-b]quinazolin-11(2H)-one]	< 10
CCCn1ccc2cc(C#Cc3ccc(F)cc3)ccc2c1=O [Example 18.2, 6-((4-fluorophenyl)ethynyl)-2-propylisoquinolin-1 (2H)-one]	300 to 1000
CN(C)CC1CCc2nc3cc(C#Cc4cccc(F)c4)ccc3c(=O)n2C1 (stereo not shown) [Example 4.36, 8-((dimethylamino)methyl)-3-((3-fluorophenyl)ethynyl)-8,9-dihydro-6H-pyrido[2,1-b]quinazolin-11(7H)-one]	300 to 1000
O=c1c2ccc(C#CC3=CCCCC3)cc2nc2n1CCC1(CC2)OCCO1 [Example 7.53]	300 to 1000
O=c1c2ccc(C#Cc3ccccn3)cc2nc2n1C1CCC2C1 (stereo not shown) [Example 3.25, 3-(pyridin-2-ylethynyl)-8,9-dihydro-6H-6,9-methanopyrido[2,1-b]quinazolin-11(7H)-one]	10 to 30
C/C=C1\CCCCCn2c1nc1cc(C(=O)Nc3ncc(C)s3)ccc1c2=O [Example 25.1, (E)-6-ethylidene-N-(5-methylthiazol-2-yl)-13-oxo-7,8,9,10,11,13-hexahydro-6H-azocino[2,1-b]quinazoline-3-carboxamide]	< 10
O=c1c2ccc(C#Cc3ccccn3)cc2nc2n1CC1(CCOCC1)C2 [Example 3.24, 6′-(pyridin-2-ylethynyl)-2,3,5,6-tetrahydro-1′H-spiro[pyran-4,2′-pyrrolo[2,1-b]quinazolin]-9′(3′H)-one]	10 to 30
CCC(C)n1cnc2cc(C#Cc3cccc(F)c3)ccc2c1=O (stereo not shown) [Example 1.19, 3-(sec-butyl)-7-((3-fluorophenyl)ethynyl)quinazolin-4(3H)-one]	< 10
O=c1c2ccc(C#Cc3ccccn3)cc2nc2n1CCC1(CC2)OCCO1 [Example 7.10]	30 to 100
CC1(F)CCc2nc3cc(C#Cc4ccccn4)ccc3c(=O)n2CC1 (single isomer, unassigned) [Example 6.48a/6.48b faster moving enantiomer (fraction 1), 8-fluoro-8-methyl-3-(pyridin-2-ylethynyl)-7,8,9,10-tetrahydroazepino[2,1-b]quinazolin-12(6H)-one]	< 10
CC1(C)CC(F)c2nc3cc(C#Cc4ccccn4)ccc3c(=O)n2C1 (stereo not shown) [Example 4.47, 6-fluoro-8,8-dimethyl-3-(pyridin-2-ylethynyl)-8,9-dihydro-6H-pyrido[2,1-b]quinazolin-11(7H)-one]	< 10
O=c1c2ccc(/C=C/c3ccccn3)cc2nc2n1CCCCC2 [Example 20.10, (E)-3-(2-(pyridin-2-yl)vinyl)-7,8,9,10-tetrahydroazepino[2,1-b]quinazolin-12(6H)-one]	30 to 100
O=c1c2ccc(C#Cc3ccccn3)cc2nc2n1CCC1CC21 (stereo not shown) [Example 4.43, 8-(pyridin-2-ylethynyl)-1,2,3,10b-tetrahydrocyclopropa[3,4]pyrido[2,1-b]quinazolin-5(1aH)-one]	10 to 30
O=c1c2ccc(C#Cc3cccs3)cc2nc2n1CCC1(CC2)OCCO1 [Example 7.57]	30 to 100
Cn1cc(C#Cc2ccc3c(=O)n4c(nc3c2)CCC2(CC4)OCCO2)cn1 [Example 7.69]	100 to 300
CC1CCCCc2nc3cc(C#Cc4ccccn4)ccc3c(=O)n21 (stereo not shown) [Example 6.44, 10-methyl-3-(pyridin-2-ylethynyl)-7,8,9,10-tetrahydroazepino[2,1-b]quinazolin-12(6H)-one]	< 10
O=c1c2ccc(C#Cc3ccccn3)cc2nc2n1CC1CCCCN1CC2 (stereo not shown) [Example 9.2, 3-(pyridin-2-ylethynyl)-9,10,11,12,12a,13-hexahydro-6H-pyrido[2′,1′:3,4][1,4]diazepino[7,1-b]quinazolin-15(7H)-one]	100 to 300
